Where two headings read alike, the source gives them in different places.
Key:
Experiment in all cases: ITC
[1] = target: T1, EF-Tu; parameters: species or system Escherichia coli; conditions: 50 mM Hepes pH 7.4, 40 mM NH4Cl, 2 mM MgCl2, 1 mM TCEP
T1 construct: gene tufA; full-length, His-tagged (pET-His-EF-Tu), expressed in E. coli BL21(DE3), nucleotide-free, unphosphorylated
From the text: ITC on EF-Tu | consistent with the affinities measured with GDPNP

[2] = target: T2, pEF-TuT382; parameters: species or system Escherichia coli; conditions: 50 mM Hepes pH 7.4, 40 mM NH4Cl, 2 mM MgCl2, 1 mM TCEP; phosphorylated at T382
T2 construct: gene tufA; full-length His-tagged EF-Tu phosphorylated at T382 in vitro by toxin Doc with ATP, repurified by SEC

[3] = target: T2, pEF-TuT382; assay type: binding, Escherichia coli; conditions: 50 mM Hepes pH 7.4, 40 mM NH4Cl, 2 mM MgCl2, 1 mM TCEP, nucleotide-free protein, phosphorylated at T382
[4] = target: T1, EF-Tu; assay type: binding, Escherichia coli; conditions: 20 °C, 50 mM Hepes pH 7.4, 40 mM NH4Cl, 2 mM MgCl2, 1 mM TCEP, nucleotide-free protein; read-out: affinity

Kd [1] | Kd [2] | Kd ([3]; read-out: affinity) | Kd [4] | Kd ([3]; read-out: Kd) | Compound
128 ± 8 nM | 320 ± 1 nM |  |  |  | Nc1nc2c(ncn2[C@@H]2O[C@H](COP(=O)(O)OP(=O)(O)NP(=O)(O)O)[C@@H](O)[C@H]2O)c(=O)[nH]1 [GDPNP, 5′-guanylyl imidodiphosphate]
 |  | 5.7 nM | 4.5 nM |  | Nc1nc2c(ncn2[C@@H]2O[C@H](COP(=O)(O)OP(=O)(O)O)[C@@H](O)[C@H]2O)c(=O)[nH]1 [GDP]
 |  |  | 81 nM | 90 nM | Nc1nc2c(ncn2[C@@H]2O[C@H](COP(=O)(O)OP(=O)(O)OP(O)(O)=S)[C@@H](O)[C@H]2O)c(=O)[nH]1 [GTPγS, guanosine-5′-(γ-thio)-triphosphate]
